What was measured:
[1] = system: PV 5′ UTR RNA; type: binding, poliovirus
[2] = system: IRES initiated translation; details: cited from earlier work

Sequence	binding to PV 5′ UTR RNA relative to wild-type La antigen [1]	inhibition of IRES initiated translation [2]
AALEAKICHQIEQQFGDF [Peptide 772]	dramatically reduced binding	
AALEAKICHQIEYYFGDF [LAP]		inhibit this translation
AALEAKICHQIEYYQGDQ [Peptide 771]	dramatically reduced binding	
